# Measured values as given in patent publication US12064413B2, “Methods of treating melanoma with S-equol” (The Board of Regents of the University of Texas System, priority 2018, dated 2024).
# Entries after “also recorded” stand apart in the source; their conditions may differ. Where two headings read alike, the source gives them in different places.
# Experiments:
# [1] = tested on: cytochrome oxidase (COX); settings: brains from ovariectomized mice; cited from earlier work
# [2] = tested on: B16 cells; assay: B16 tumor growth in mice with daily subcutaneous S-equol (Example 6); type: in vivo; settings: S-equol 20 or 60 mg/kg per day s.c. vs PBS vehicle; start at tumor mass 50 to 80 mm^3
# Protocol: Further work in a preclinical animal model supports the notion of using S-cquol to treat melanoma. In immunocompromised mouse experiments, using B16, a murine tumor cell line know to be useful to study human melanoma metastasis and solid tumor formation, growth of tumors is suppressed with S-equol treatment compared to control. 0.5×10^6 B16 cells are injected into normal BL mice. When the tumor masses reach 50 to 80 mm^3 (about one week after the inoculation), the mice are given daily subcutaneous injections of S-equol (20 or 60 mg/kg per day) or PBS as a vehicle control. Tumor development is followed by caliper measurements along two orthogonal axes: length (L) and width (W) and volume (V) is estimated by the formula V=[L×(W^2)]/2. Tumors harvested from mice are fixed in 10% neutral-buffered formalin, dehydrated, embedded in paraffin, and sectioned at 3 μm thickness. Representative tumor sections from vehicle control and S-equol-treated mice are tested for Ki-67 expression to assess cell proliferation, and for ERβ pY36. Statistical significance in the experiments is assessed by two-tailed Student's t test. In all assays, p<0.05 is considered statistically significant.
# [3] = tested on: rat hippocampal neurons; settings: cited from earlier work
# [4] = tested on: melanoma; assay: Pilot biomarker clinical study of Ki67 in melanoma subjects (Example 7); type: in vivo, human; settings: oral S-equol 50 mg twice daily for 10-21 days; 20 subjects with melanoma
# Protocol: A pilot biomarker clinical study is performed in 20 subjects with documented melanoma to determine the effect of the ERβ agonist S-equol on Ki67 an indicator of tumor cell proliferation. Tumor cell proliferation is measured by immunohistological staining for Ki-67. Ki-67 is encoded by the gene MKI67 gene and is required to maintain individual mitotic chromosomes dispersed in the cytoplasm following nuclear envelope disassembly. Measuring the fraction of Ki-67-positive cells in a tumor is known to be a reliable parameter for assessing cancer patient prognosis. Subjects with TNBC are known to have very high levels of Ki67.
# Patients enrolled in the study receive a history, physical, laboratory assessment, radiological imaging, and diagnostic biopsies. Immunohistochemistry (IHC) of Ki67 (proliferation marker), total ERβ, and pY36-ERβ (phosphorylated ERβ), B7H1 (also known as PDL-1) and MIA and S100B are conducted using core needle biopsy tissue samples prior to treatment. Patients are given oral S-equol 50 mg, twice daily for approximately two weeks (10-21 days) prior to the scheduled oncologic surgeries or start of primary systemic therapy. […]
# A standard procedure for acquiring core biopsy is utilized for determining melanoma prior to enrollment. […] The tissue samples are sent for staining of total and pY36, ERβ and Ki67, and analyzed. […]
# [5] = tested on: B16 melanoma tumor cell line; assay: B16 melanoma tumor challenge in mice, S-equol and anti-PD-1 antibody alone or combined; type: in vivo; settings: for tumor volume: anti-PD-1 250 μg every 3 days i.p., S-equol 50 mg/kg per day oral gavage
# Protocol: FIG. 4. A schema for combination therapy. Mice were administered one of: (1) vehicle+rat IgG2a; (2)S-equol+rat IgG2a; (3) vehicle+anti-PD-1 antibody; or (4)S-equol+anti-PD-1 antibody. Mice receiving anti-PD-1 antibody were given 250 μg every 3 days, intraperitoneally, and mice receiving S-equol were given 50 mg/kg per day by oral gavage. Treatment started 7 days after tumor challenge with B16 melanoma.
# Melanoma cell line B16 was tested to determine the effects of a PD-1 inhibitor, S-equol and a combination of the two therapies on tumor growth. This experimental design includes four arms: (1) controls, (2) αPD-1, (3)S-cquol, and (4) αPD-1+S-equol (FIG. 4) by injecting into mice 5×10^5 cells subcutaneously. Antibodies were administered α-PD-1: 250 μg/mice by i.p. injection every 3 days and S-equol was administered at 50 mg/kg/day by oral gavage. Treatment began 7 day after tumor challenge. Tumor growth trajectories were compared within treated mice using a repeated measures linear mixed model. The primary outcome was the logarithm of the tumor size, and the test statistic is the treatment X time interaction. Tumors were measured about 10 times. The number of recipient mice use used in the studies (n=6 per group) was based on the above study.
# [6] = tested on: triple negative breast cancer (TNBC); settings: cited from earlier work
compound,measurement,setting,value
Oc1ccc([C@H]2COc3cc(O)ccc3C2)cc1 [S-equol],COX1 protein levels,[1],increase
same,cytochrome oxidase (COX) activity,[1],increase
same,growth of tumors,[2],suppressed
same,respiratory and maximal glycolysis fluxes,[3],increase
same,"Ki67 (tumor cell proliferation, IHC) pre- vs post-treatment",[4],measurable decrease; also recorded: measurable decline
same,effect on anticancer immunotherapy,"[5]; Example 4, FIGS. 6-9, n=6 per group",boost anticancer immunotherapy
same,tumor volume,"[5]; FIG. 6, over 12 days post-challenge",reduce tumor volume compared to control
same,tumor volume,"[5]; FIG. 7, over 19 days post-challenge",reduce tumor volume compared to control
same,tumor weight,"[5]; FIG. 8A, mice challenged with B16 melanoma",reduce tumor weight compared to control
same,tumor volume,"[5]; FIG. 9A, over 16 days (title) / 12 days post-challenge",reduce tumor volume compared to control
pembrolizumab,response rate,"[6]; Phase 1 study, 27 women with heavily pretreated, chemotherapy resistant, metastatic TNBC that expressed PD-L1",18.4%
avelumab,response rate,[6]; 168 TNBC tumors unselected for PD-L1 expression,8.6%
atezolizumab,response rate,"[6]; 21 evaluable, PD-L1 expressing TNBC tumors",19%
